pIC50: −log10 of the molar value.
Tested on: human neurotensin receptor proteins expressed in HEK cell membranes
Assay: SPA [3H] neurotensin receptor binding assay
Conditions: displacement of 4 nM [3H]neurotensin, 2 hours, room temperature
Text: The Citrullimycines according to the invention show inhibition in the neurotensin receptor binding assay of human neurotensin receptor proteins expressed in HEK cell membranes.
SPA [^3H] Neurotensin Receptor Binding Assay
Compounds with an affinity for the neurotensin receptor will displace the binding of [3H] neurotensin, which results in a diminished radioactive signal. In the SPA method, receptors immobilized directly on PVT WGA (Wheat Germ Agglutinin) coated SPA beads (Amersham Pharmacia) bind the radiolabelled ligand. The ligand-receptor complex is held in close enough proximity to stimulate emission of light by the bead. Any unbound radioligand is too distant from the bead to transfer energy and therefore will not be detected.
The samples were pre-diluted 1:5 with assay buffer (50 mM Tris-HCl buffer with 1 mM EDTA, 0.2 mM Bacitracin, and 0.1% BSA, pH 7.4) in deep well plates. The final dilution in the assay was 1:20. 96-well isoplates from Wallac were used for the screening. […]
On each plate, four wells without samples were used to determine the total receptor-ligand binding and another four wells with 1 μM (L-α, γ-diaminobutyryl) neurotensin were used to determine the nonspecific binding respectively. Inhibition activities are expressed as: […]

CCC(C)CCC(O)CC(=O)OC(CCC(C)C)CC(=O)NC(CCCNC(N)=O)C(=O)OC(CCC(C)CC)CC(=O)OC(CCC(C)CC)CC(=O)O (stereo not shown) [Citrullimycine A]
pIC50: 4.80
